Results published in US20250328351A1, “CARBONIC ANHYDRASE INHIBITORS AND ANTIBIOTICS AGAINST MULTIDRUG RESISTANT BACTERIA” (Purdue Research Foundation, priority 2018, published 2025).
Values after ≈ are worked out from the molar mass of the structure shown. Where two headings read alike, the source gives them in different places. Blank lines part the entries; values can stand above or below the compound they belong to.

Experiments:
[1] = system: Enterococcus faecalis S613 HM-334; assay: MIC, broth microdilution (CLSI); format: cell-based
Description: (§1) The minimum inhibitory concentrations (MICs) of the compounds and control drugs were determined using the broth microdilution method, according to guidelines outlined by the Clinical and Laboratory Standards Institute (CLSI). Enterococci strains were grown aerobically overnight on tryptone soya agar plates at 37° C., afterwards a bacterial solution equivalent to 0.5 McFarland standard was prepared and diluted in tryptone soy broth (TSB) to achieve a bacterial concentration of about 5×10^5 CFU/mL and seeded in 96-well well plates. Compounds and control drugs were added in the first row of the 96-well plates and serially diluted along the plates. Plates were then incubated aerobically at 37° C. for 18-20 hours. MICs reported in Table 1 are the minimum concentration of the compounds/control drugs that could inhibit completely the visual growth of the bacteria.
(§2) The minimum inhibitory concentrations (MICs) of CAIs were tested against clinical isolates of vancomycin sensitive and vancomycin resistant Enterococci strains as per the guidelines provided by the Clinical and Laboratory Standards Institute (CLSI). The selected strains of Enterococci were streaked on Tryptic Soy Agar (TSA) plates and let grow for 24 hours at 37° C. Afterwards, a bacterial solution equivalent to 0.5 McFarland standard was prepared and diluted in tryptone soy broth (TSB) or brain heart infusion broth (BHIB) to achieve a bacterial concentration of about 5×10^5 CFU/mL and seeded in 96-well well plates. Compounds and control drugs were added in the first row of the 96-well plates and serially diluted along the plates. Plates were then incubated aerobically at 37° C. for 18-20 hours. MICs reported in Table 5 are the minimum concentration of the compounds/control drugs that could inhibit completely the visual growth of the bacteria.
The minimum inhibitory concentrations (MICs) of CAIs were tested against vancomycin resistant Enterococcus faecalis—S613 HM 334 strain as per the guidelines provided by the Clinical and Laboratory Standards Institute (CLSI). The selected strain was streaked on Tryptic Soy Agar (TSA) plate and let grow for 24 hours at 37° C. […] Compounds and control drugs were added in the first row of the 96-well plates and serially diluted along the plates. Plates were then incubated aerobically at 37° C. for 18-20 hours. MICs reported in table (6) are the minimum concentration of the compounds/control drugs that could inhibit completely the visual growth of the bacteria.

[2] = system: Bacteroides dorei CL02T12C06 HM-719; assay: MIC against human normal gut microbiota; format: cell-based; settings: Phocaeicola dorei; Table 3; BHIS broth, anaerobic, 48 hours; read-out: MIC
Description: (§3) Three different bacterial strains were used in this experiment; Bifidobacterium (anaerobic Gram positive bacteria), Bacteroides (anaerobic Gram negative bacteria) and Lactobacillus (microaerophilic Gram positive bacteria). Bifidobacterium and Bacteroides were first grown for 48 hours at 37° C., anaerobically using brain heart infusion supplemented (BHIS) agar (Brain heart infusion agar supplemented with hemin, vitamin K and L-cysteine). Lactobacillus was cultivated on MRS agar and incubated in presence of 5% CO2 for 48 hours at 37° C. Each bacterium was suspended in phosphate buffered saline (PBS) to produce a suspension with optical density that matches 0.5 McFarland standard and diluted in brain heart infusion supplemented broth (for Bifidobacterium and Bacteroides) or in MRS broth (for Lactobacillus) to achieve bacterial concentration of approximately 5×10^5 CFU/ml. Bacteria were then seeded in 96-well plates containing serial dilutions of the compounds and incubated as mentioned previously for 48 hours.

[3] = system: Bacteroides fragilis CL07T00C01 HM-709; assay: MIC against human normal gut microbiota; format: cell-based; settings: Table 3, BHIS broth, anaerobic, 48 hours, read-out: MIC
Description: as §3

[4] = system: Bifidobacterium breve JCP7499 HM 1120; assay: MIC against human normal gut microbiota; format: cell-based; settings: JCP7499HM1120, Table 3, BHIS broth, anaerobic, 48 hours, read-out: MIC
Description: as §3

VERO cells = assay: In vitro cytotoxicity, MTS assay; format: cell-based, monkey; settings: concentration up to 128 μg/mL; two hours incubation
Description: Toxicity assessment: Compounds AS005H, AS005J, AS004B, AS005K, AS005A and 005D were assayed (at concentrations of 64 and 128 μg/mL) against a fibroblast-like monkey kidney cell line (VERO cell) to determine the potential toxic effect in vitro. Briefly, cells were cultured in Minimum Essential Medium (MEM) supplemented with 10% fetal bovine serum (FBS), 1 mM sodium pyruvate, and penicillin-streptomycin at 37° C. with CO2 (5%). Control cells received DMSO alone at a concentration equal to that in drug-treated cell samples. The cells were incubated with the compounds (in triplicate) in a 96-well plate at 37° C. with CO2 (5%) for two hours. The assay reagent MTS 3-(4,5-dimethylthiazol-2-yl)-5-(3-carboxymethoxyphenyl)-2-(4-sulfophenyl)-2H-tetrazolium) (Promega, Madison, WI, USA) was subsequently added and the plate was incubated for four hours. Absorbance readings (at OD490) were taken using a kinetic microplate reader (Molecular Devices, Sunnyvale, CA, USA). The quantity of viable cells after treatment with each compound was expressed as a percentage of the viability of DMSO-treated control cells (average of triplicate wells±standard deviation). The toxicity data was analyzed via a two-way ANOVA, with post hoc Dunnet's multiple comparisons test (P<0.05), utilizing GraphPad Prism 6.0 (GraphPad Software, La Jolla, CA).
Percent viable mammalian cells (measured as average absorbance ratio (test agent relative to DMSO) for cytotoxicity analysis of compounds AS005H, AS005J, AS004B, AS005K, AS005A and 005D (tested in triplicates) at 64 and 128 μg/mL against VERO cells using the MTS 3-(4,5-dimethylthiazol-2-yl)-5-(3-carboxymethoxyphenyl)-2-(4-sulfophenyl)-2H-tetrazolium) assay. Dimethyl sulfoxide (DMSO) was used as a negative control to determine a baseline measurement for the cytotoxic impact of each compound. The absorbance values represent an average of a minimum of three samples analyzed for each compound. Error bars represent standard deviation values for the absorbance values.

[5] = system: Enterococcus faecium E417 - HM-965; assay: MIC, broth microdilution (CLSI); format: cell-based
Description: as §1, §2

[6] = system: Enterococcus faecium Patient #2-1 - NR-31909; assay: MIC, broth microdilution (CLSI); format: cell-based; settings: Table 5
Description: as §1, §2

[7] = system: Enterococcus fecalis Strain SF 24397 NR31970; assay: MIC, broth microdilution (CLSI); format: cell-based; settings: Table 5
Description: as §1, §2

[8] = Enterococcus faecalis, S613HM334, Table 5, BHIB, read-out: MIC
[9] = Enterococcus faecalis, S613HM334, Table 5, TSB, read-out: MIC
[10] = Enterococcus faecalis, S613HM334, Table 6, TSB in presence of 4% human serum albumin, read-out: MIC
[11] = Enterococcus faecalis, S613HM334, Table 1, TSB, read-out: MIC
[12] = Enterococcus faecalis, S613HM334, Table 7, TSB, read-out: MIC

SMILES: CCN[C@H]1CN(CCCOC)S(=O)(=O)c2sc(S(N)(=O)=O)cc21 [Brinzolamide]
MIC [1, 8]: > 128 µg/mL
MIC [1, 9]: 2 µg/mL (≈ 5.21 µM)
MIC [1, 10]: > 256 µg/mL

SMILES: CCCC(=O)Nc1nnc(S(N)(=O)=O)s1 [CAI0013, N-(5-Sulfamoyl-1,3,4-thiadiazol-2-yl)butyramide]
MIC [2]: > 64 µg/mL
MIC [3]: > 64 µg/mL
MIC [4]: > 64 µg/mL
toxicity to VERO cells (percent viable cells, MTS) (VERO cells): non-toxic

SMILES: CCCCCCCCCC(=O)N[C@@H](Cc1c[nH]c2ccccc12)C(=O)N[C@H](CC(N)=O)C(=O)N[C@@H](CC(=O)O)C(=O)N[C@@H]1C(=O)NCC(=O)N[C@@H](CCCN)C(=O)N[C@@H](CC(=O)O)C(=O)N[C@H](C)C(=O)N[C@@H](CC(=O)O)C(=O)NCC(=O)N[C@H](CO)C(=O)N[C@@H]([C@H](C)CC(=O)O)C(=O)N[C@@H](CC(=O)c2ccccc2N)C(=O)O[C@@H]1C [Daptomycin]
MIC ([5]; Enterococcus faecium, E417HM965, Table 5, BHIB, read-out: MIC): 16 µg/mL (≈ 9.87 µM)
MIC ([5]; Enterococcus faecium, E417HM965, Table 5, TSB, read-out: MIC): 4 µg/mL (≈ 2.47 µM)
MIC ([6]; Enterococcus faecium, BHIB, read-out: MIC): 16 µg/mL (≈ 9.87 µM)
MIC ([6]; Enterococcus faecium, TSB, read-out: MIC): 8 µg/mL (≈ 4.94 µM)
MIC ([7]; Enterococcus, BHIB, read-out: MIC): 2 µg/mL (≈ 1.23 µM)
MIC ([7]; Enterococcus, TSB, read-out: MIC): 1 µg/mL (≈ 0.617 µM)
MIC [1, 8]: 2 µg/mL (≈ 1.23 µM)
MIC [1, 9]: 1 µg/mL (≈ 0.617 µM)
MIC [1, 10]: 16 µg/mL

SMILES: NS(=O)(=O)c1cc(Cl)c(Cl)c(S(N)(=O)=O)c1 [Dichlophenamide, reference compound]
MIC ([5]; Table 5, BHIB): 16 µg/mL (≈ 52.4 µM)
MIC ([5]; Table 5, TSB): 1 µg/mL (≈ 3.28 µM)
MIC ([6]; TSB): 2 µg/mL (≈ 6.55 µM)
MIC ([7]; TSB): 16 µg/mL (≈ 52.4 µM)
MIC ([1]; Table 5, TSB): 16 µg/mL (≈ 52.4 µM)

SMILES: CCOc1ccc2nc(S(N)(=O)=O)sc2c1 [Ethoxzolamide]
MIC [1, 8]: > 128 µg/mL
MIC [1, 9]: 1 µg/mL (≈ 3.87 µM)
MIC [1, 10]: > 256 µg/mL

SMILES: CC(=O)NC[C@H]1CN(c2ccc(N3CCOCC3)c(F)c2)C(=O)O1 [Linezolid]
MIC [1, 11]: 1 µg/mL (≈ 2.96 µM)
MIC [1, 8]: 1 µg/mL (≈ 2.96 µM)
MIC [1, 9]: 1 µg/mL (≈ 2.96 µM)
MIC [1, 12]: 1 µg/mL (≈ 2.96 µM)
MIC [2]: 1 µg/mL (≈ 2.96 µM)
MIC [3]: 2 µg/mL (≈ 5.93 µM)
MIC [4]: ≤ 0.5 µg/mL

SMILES: CC(=O)/N=c1/sc(S(N)(=O)=O)nn1C [Methazolamide]
MIC [1, 8]: > 128 µg/mL
MIC [1, 9]: 1 µg/mL (≈ 4.23 µM)
MIC [1, 10]: > 256 µg/mL

Second part, led by results:

MIC [1, 11]: 2 µg/mL (≈ 8.46 µM)
MIC [1, 12]: 2 µg/mL (≈ 8.46 µM)
SMILES: CCC(=O)Nc1nnc(S(N)(=O)=O)s1 [CAI0009, N-(5-Sulfamoyl-1,3,4-thiadiazol-2-yl)propionamide]
MIC [2]: > 64 µg/mL
MIC [3]: > 64 µg/mL
MIC [4]: > 64 µg/mL

MIC [1, 11]: 4 µg/mL (≈ 14.1 µM)
MIC [1, 12]: 4 µg/mL (≈ 14.1 µM)
SMILES: NS(=O)(=O)c1nnc(NC(=O)c2ccccc2)s1 [CAI0012, N-(5-Sulfamoyl-1,3,4-thiadiazol-2-yl)benzamide]
MIC [2]: > 64 µg/mL
MIC [3]: > 64 µg/mL
MIC [4]: > 64 µg/mL

MIC [1, 12]: 1 µg/mL (≈ 3.81 µM)
SMILES: NS(=O)(=O)c1nnc(NC(=O)C2CCC2)s1 [CAI0018, N-(5-Sulfamoyl-1,3,4-thiadiazol-2-yl)cyclobutanecarboxamide]

MIC [1, 12]: 0.007 µg/mL (≈ 0.0282 µM)
SMILES: NS(=O)(=O)c1nnc(NC(=O)C2CC2)s1 [CAI0020, N-(5-Sulfamoyl-1,3,4-thiadiazol-2-yl)cyclopropanecarboxamide]

MIC [1, 12]: 0.03 µg/mL (≈ 0.103 µM)
SMILES: NS(=O)(=O)c1nnc(NC(=O)CC2CCCC2)s1 [CAI0021, 2-Cyclopentyl-N-(5-sulfamoyl-1,3,4-thiadiazol-2-yl)acetamide]

MIC [1, 12]: 0.25 µg/mL (≈ 0.861 µM)
SMILES: NS(=O)(=O)c1nnc(NC(=O)C2CCCCC2)s1 [CAI0022, N-(5-Sulfamoyl-1,3,4-thiadiazol-2-yl)cyclohexanecarboxamide]

MIC [1, 12]: 0.5 µg/mL (≈ 1.81 µM)
SMILES: NS(=O)(=O)c1nnc(NC(=O)C2CCCC2)s1 [CAI0023, N-(5-Sulfamoyl-1,3,4-thiadiazol-2-yl)cyclopentanecarboxamide]

MIC [1, 12]: > 128 µg/mL
SMILES: CC(=O)Nc1nnc(S(C)(=O)=O)s1 [CAI0025, N-(5-(Methylsulfonyl)-1,3,4-thiadiazol-2-yl)acetamide]

MIC [1, 12]: 0.25 µg/mL (≈ 0.946 µM)
SMILES: CC(C)CC(=O)Nc1nnc(S(N)(=O)=O)s1 [CAI0026, 3-Methyl-N-(5-sulfamoyl-1,3,4-thiadiazol-2-yl)butanamide]

MIC [1, 12]: 0.007 µg/mL (≈ 0.0239 µM)
SMILES: CCCCCCC(=O)Nc1nnc(S(N)(=O)=O)s1 [CAI0027, N-(5-Sulfamoyl-1,3,4-thiadiazol-2-yl)heptanamide]

MIC [1, 12]: 0.03 µg/mL (≈ 0.108 µM)
SMILES: CC(C)(C)CC(=O)Nc1nnc(S(N)(=O)=O)s1 [CAI0028, 3,3-Dimethyl-N-(5-sulfamoyl-1,3,4-thiadiazol-2-yl)butanamide]

MIC [1, 12]: 0.015 µg/mL (≈ 0.0493 µM)
SMILES: NS(=O)(=O)c1nnc(NC(=O)CC2CCCCC2)s1 [CAI0029, 2-Cyclohexyl-N-(5-sulfamoyl-1,3,4-thiadiazol-2-yl)acetamide]
